The record followed here is patent US20160145247A1, “Aminomethyl-Biaryl Derivatives Complement Factor D inhibitors and uses thereof” (NOVARTIS AG, priority 2013, published 2016).

As usually defined, the IC50 is the concentration that inhibits the measured activity by half. Read a low IC50 as greater potency in that assay.

The target of this assay is T1, factor D (Homo sapiens, UniProt P00746).
T1 construct: made in house; host or cells: E. coli
T1 sequence (P00746 26-253): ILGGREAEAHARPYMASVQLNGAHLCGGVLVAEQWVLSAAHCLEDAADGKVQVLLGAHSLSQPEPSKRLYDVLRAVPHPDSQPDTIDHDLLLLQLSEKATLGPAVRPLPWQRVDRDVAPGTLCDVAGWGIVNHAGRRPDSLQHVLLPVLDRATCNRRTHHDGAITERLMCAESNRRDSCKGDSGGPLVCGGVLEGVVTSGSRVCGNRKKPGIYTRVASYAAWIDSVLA
The experiment in a line: factor D inhibition assay of Biological Example 2. It counts as biochemical.
`NCc1cncc(-c2cc(COc3ccccc3CC(=O)O)cc(OC[C@H]3CCCO3)c2)c1` [Example 138-C] returned an IC50 of 1520 nM.

As to `NCc1cccc(-c2cc(COc3ccccc3CC(=O)O)cc(OCC3CC3)c2)c1` [Example 136, 2-(2-((3′-(Aminomethyl)-5-(cyclopropylmethoxy)-[1,1′-biphenyl]-3-yl)methoxy)phenyl)acetic acid], the midpoint of inhibition, the IC50, lay at 5 nM.

In turn, `C[C@@H](N)c1cccc(-c2cc(COc3ccccc3CC(=O)O)cc(OCC3CCCN3)c2)c1F` (stereo partly drawn) [Example 266, 2-(2-((3′-((R)-1-aminoethyl)-2′-fluoro-5-(pyrrolidin-2-ylmethoxy)-[1,1′-biphenyl]-3-yl)methoxy)phenyl)acetic acid] came in with an IC50 of 34 nM. Next, `NCc1cccc(-c2cc(N)c(F)c(COc3ccccc3CC(=O)O)c2)c1` [154-C a), 2-(2-((5-Amino-3′-(aminomethyl)-4-fluoro-[1,1′-biphenyl]-3-yl)methoxy)phenyl)acetic acid]: 3 nM; `NCc1cccc(-c2cncc(C(=O)Nc3ccccc3CC(=O)O)c2)c1` [Example 40, 2-(2-(5-(3-(Aminomethyl)phenyl)nicotinamido)phenyl)acetic acid]: 12800 nM.

As to `CC(O)c1cc(COc2ccccc2CC(=O)O)cc(-c2cccc(CN)c2)c1` (racemic) [Example 106, (±)-2-(2-((3′-(Aminomethyl)-5-(1-hydroxyethyl)-[1,1′-biphenyl]-3-yl)methoxy)phenyl)acetic acid], the IC50 was determined as 5 nM. Molecule `CCC[C@@H](N)c1cccc(-c2cc(COc3ccccc3CC(=O)O)cc(NCC3CC3)c2)c1` [Example 197, (R)-2-(2-((3′-(1-Aminobutyl)-5-((cyclopropylmethyl)amino)-[1,1′-biphenyl]-3-yl)methoxy)phenyl)acetic acid] had an IC50 of 69 nM. In turn, `N[C@H](CO)c1cccc(-c2cc(OC[C@@H]3CCCO3)cc(C(=O)Nc3ccccc3CC(=O)O)c2)c1` [Example 81, 2-(2-(3′-((S)-1-Amino-2-hydroxyethyl)-5-(((S)-tetrahydrofuran-2-yl)methoxy)-[1,1′-biphenyl]-3-ylcarboxamido)phenyl)acetic acid] showed an IC50 of 20 nM.

In turn, `C[C@@H](N)c1cccc(-c2cc(COc3ccccc3CC(=O)O)cc(C3CCCC3)c2)c1F` [Example 244, (R)-2-(2-((3′-(1-aminoethyl)-5-cyclopentyl-2′-fluoro-[1,1′-biphenyl]-3-yl)methoxy)phenyl)acetic acid] registered an IC50 of 3 nM. This IC50 is about 6.7-fold lower than that of the molecule before.

As for `C[C@@H](N)c1cccc(-c2cc(COc3ccccc3CC(=O)O)cc(NCC(F)(F)F)c2)c1F` [Example 226-C, (R)-2-(2-((3′-(1-aminoethyl)-2′-fluoro-5-((2,2,2-trifluoroethyl)amino)-[1,1′-biphenyl]-3-yl)methoxy)phenyl)acetic acid], the IC50 was found to be 8 nM.

The molecule `C[C@@H](N)c1cccc(-c2ccc(C3CC3)c(COc3ccccc3CC(=O)O)c2)c1F` [Example 280, (R)-2-(2-((3′-(1-aminoethyl)-4-cyclopropyl-2′-fluoro-[1,1′-biphenyl]-3-yl)methoxy)phenyl)acetic acid] returned an IC50 of 6 nM. Next, `C[C@@H](N)c1cccc(-c2cc(COc3ccccc3CC(=O)O)c3c(c2)OCO3)c1` [Example 254, (R)-2-(2-((6-(3-(1-aminoethyl)phenyl)benzo[d][1,3]dioxol-4-yl)methoxy)phenyl)acetic acid]: 32 nM; `NCc1cccc(-c2cc(COc3ccccc3CC(=O)O)cc(NC[C@@H]3CCCO3)c2)c1` [Example 140, (S)-2-(2-((3′-(Aminomethyl)-5-(((tetrahydrofuran-2-yl)methyl)amino)-[1,1′-biphenyl]-3-yl)methoxy)phenyl)acetic acid]: 3 nM. Next, `C[C@@H](N)c1cccc(-c2cc(COc3ccccc3CC(=O)O)cc(C(=O)N(C)C)c2)c1F` [Example 216-R]: 147 nM; `CNC(=O)c1cc(COc2cc(C(=O)Nc3ccccc3CC(=O)O)cc(-c3cc(F)cc(CN)c3)c2)ccn1` [Example 71, 2-(2-(3′-(Aminomethyl)-5′-fluoro-5-((2-(methylcarbamoyl)pyridin-4-yl)methoxy)-[1,1′-biphenyl]-3-ylcarboxamido)phenyl)acetic acid]: 9 nM; `CC(C)(N)c1cccc(-c2cccc(COc3ccccc3CC(=O)O)c2)c1F` [Example 190-L]: 3270 nM. Next, `NCc1cccc(-c2cc(COc3ccccc3CC(=O)O)cc(C3CC3)c2)c1` [Example 103-B, 2-(2-((3′-(Aminomethyl)-5-cyclopropyl-[1,1′-biphenyl]-3-yl)methoxy)phenyl)acetic acid]: 10 nM. `COCCn1cc(-c2cc(COc3ccccc3CC(=O)O)cc(-c3cccc(CN)c3)c2)cn1` [Example 209-E] registered an IC50 of 5 nM. This IC50 lies about 2-fold lower than the previous one. Then `CCC[C@@H](N)c1cccc(-c2cc(COc3ccccc3CC(=O)O)cc(N3CCOCC3)c2)c1F` [Example 198-C, (R)-2-(2-((3′-(1-Aminobutyl)-2′-fluoro-5-morpholino-[1,1′-biphenyl]-3-yl)methoxy)phenyl)acetic acid], with 199 nM; and `N[C@H](CO)c1cccc(-c2cc(COc3ccccc3CC(=O)O)cc(C(=O)N[C@H]3CCOc4ccccc43)c2)c1` [Example 287-G, 2-(2-((3′-((S)-1-amino-2-hydroxyethyl)-5-((S)-chroman-4-ylcarbamoyl)-[1,1′-biphenyl]-3-yl)methoxy)phenyl)acetic acid], with 37 nM; and `CC(=O)Nc1cc(C(=O)Nc2ccccc2CC(=O)O)cc(-c2cccc(CN)c2)c1` [Example 5, 2-(2-(5-Acetamido-3′-(aminomethyl)-[1,1′-biphenyl]-3-ylcarboxamido)phenyl)acetic acid], with 45 nM.

Turning to `N[C@H](CO)c1cccc(-c2ccc(OC(F)(F)F)c(COc3ccccc3CC(=O)O)c2)c1` [Example 188, (S)-2-(2-((3′-(1-Amino-2-hydroxyethyl)-4-(trifluoromethoxy)-[1,1′-biphenyl]-3-yl)methoxy)phenyl)acetic acid], the IC50 was determined as 17 nM. Then `C[C@@H](N)c1cccc(-c2cc(COc3ccccc3CC(=O)O)cc(OCc3cccnc3)c2)c1F` [Example 214-L], with 12 nM; and `C[C@@H](N)c1cccc(-c2cc(CCC3CCOCC3)cc(COc3ccccc3CC(=O)O)c2)c1F` [Example 248, (R)-2-(2-((3′-(1-aminoethyl)-2′-fluoro-5-(2-(tetrahydro-2H-pyran-4-yl)ethyl)-[1,1′-biphenyl]-3-yl)methoxy)phenyl)acetic acid], with 140 nM; and `NCc1cccc(-c2cccc(C(=O)Nc3cc(Cl)ccc3CC(=O)O)c2)c1` [Example 17-B, 2-(2-(3′-(Aminomethyl)-[1,1′-biphenyl]-3-ylcarboxamido)-4-chlorophenyl)acetic acid], with 399 nM.

Consider `NCc1cccc(-c2cccc(COc3ccccc3CC(=O)O)c2)c1F` [Example 138-H], for which half-maximal inhibition (IC50) was put at 5 nM.

`Cc1cccc(CC(=O)O)c1NC(=O)c1cccc(-c2cc(F)cc(CN)c2)c1` [Example 21-C] gave an IC50 of 109 nM. Regarding `CCC[C@@H](N)c1cccc(-c2cc(COc3ccccc3CC(=O)O)cc(-c3ccccc3)c2)c1F` [Example 200-B, (R)-2-(2-((3-(1-aminobutyl)-2-fluoro-[1,1′:3′,1″-terphenyl]-5′-yl)methoxy)phenyl)acetic acid], 22 nM corresponded to half-maximal inhibition (IC50). Next, `C[C@@H](N)c1cccc(-c2cc(COc3ccccc3CC(=O)O)cc(CN3CCOCC3)c2)c1F` [Example 216-AE]: 53 nM. Then `C[C@@H](N)c1cccc(-c2cc(COc3ccccc3CC(=O)O)c3c(c2)OCO3)c1F` [Example 253-E, (R)-2-(2-((6-(3-(1-Aminoethyl)-2-fluorophenyl)benzo[d][1,3]dioxol-4-yl)methoxy)phenyl)acetic acid], with 13 nM; and `CC(C(=O)O)c1ccccc1OCc1cccc(-c2cccc(CN)c2)c1` (stereo not shown) [Example 290, 2-(2-((3′-(aminomethyl)-[1,1′-biphenyl]-3-yl)methoxy)phenyl)propanoic acid], with 1670 nM. Next, `N[C@H](CO)c1cccc(-c2cccc(COc3c(F)cccc3CC(=O)O)c2)c1` [Example 75-B, (S)-2-(2-((3′-(1-Amino-2-hydroxyethyl)-[1,1′-biphenyl]-3-yl)methoxy)-3-fluorophenyl)acetic acid]: 26 nM; `C[C@@H](N)c1cccc(-c2cc(COc3ccccc3CC(=O)O)cc(N(C)CC3CC3)c2)c1F` [Example 245, (R)-2-(2-((3′-(1-aminoethyl)-5-((cyclopropylmethyl)(methyl)amino)-2′-fluoro-[1,1′-biphenyl]-3-yl)methoxy)phenyl)acetic acid]: 9 nM. On to `Nc1cc(COc2ccccc2CC(=O)O)cc(-c2cccc([C@H](N)CO)c2)c1` [Example 133, (S)-2-(2-((5-amino-3′-(1-amino-2-hydroxyethyl)-[1,1′-biphenyl]-3-yl)methoxy)phenyl)acetic acid], for which 9 nM corresponded to half-maximal inhibition (IC50). In other words, the single-digit nanomolar range. In turn, `NCc1cccc(-c2cccc(COc3ccccc3CC(=O)O)n2)c1` [Example 160, 2-(2-((6-(3-(aminomethyl)phenyl)pyridin-2-yl)methoxy)phenyl)acetic acid] came in with an IC50 of 1140 nM. Against the preceding molecule, the IC50 is about 130-fold higher. In turn, `NCc1cccc(-c2ccc(Cl)c(C(=O)Nc3ccccc3CC(=O)O)n2)c1` [Example 56-A, 2-(2-(6-(3-(Aminomethyl)phenyl)-3-chloropicolinamido)phenyl)acetic acid] displayed an IC50 of 107 nM. This IC50 lies about 11-fold lower than the previous one.

The molecule `C[C@@H](N)c1cccc(-c2cc(COc3ccccc3CC(=O)O)cc(C3CCCCC3)c2)c1F` [Example 243-D, (R)-2-(2-((3′-(1-aminoethyl)-5-cyclohexyl-2′-fluoro-[1,1′-biphenyl]-3-yl)methoxy)phenyl)acetic acid] had an IC50 of 13 nM. Next, `N[C@H](CO)c1cccc(-c2cccc(COc3ccccc3CC(=O)O)c2)n1` [Example 138-K]: 45 nM; `NC(c1ccccc1)c1cccc(-c2cccc(COc3ccccc3CC(=O)O)c2)c1` (stereo not shown) [Example 196-C]: 313 nM; `C[C@@H](N)c1cccc(-c2cc(C#Cc3ccn(C)n3)cc(COc3ccccc3CC(=O)O)c2)c1F` [Example 218-G, (R)-2-(2-((3′-(1-Aminoethyl)-2′-fluoro-5-((1-methyl-1H-pyrazol-3-yl)ethynyl)-[1,1′-biphenyl]-3-yl)methoxy)phenyl)acetic acid]: 6 nM.
